In data set [1] the test system is Vancomycin resistant E. faecalis NR-31972 (VRE). As to the kind of experiment: Antibacterial MIC assay, serial dilution. It counts as cell-based, Enterococcus faecalis. The settings on record: for Selectivity index (CC50/MIC) VRE NR-31972: CC50 Vero cells / MIC; for MIC: Enterococcus faecalis, VRE, 24 h, read-out: MIC Vancomycin resistant E. faecalis NR-31972 (VRE). The procedure:
(§1) Media and solutions were autoclaved or sterile filtered prior to use and mani pulations were carri ed out in a laminar flow hood. Antibacterial t esting was performed in polypropylene 96-well flat bottom plates. The minimal inhibitory concentration of blasticidin S (1) hydrochloride, methyl ester (3) trihydrochloride, P10 (2) tri-T FA , phenet hyl amide (4) tri -T FA , an d blastimidines M 19– 22, A, 29–32, P 37–40, and C 43–46 (salt forms as described in the te xt) were assessed against Staphylococcus aureus ΔNorA, S. aureus ATCC 6538P, methicillin-resistant S. aureus (MRSA) ATCC 43300, Enterococcus faecalis ATCC 29212, vancomycin- resistant Enterococcus, Klebsiella pneumoniae ATCC 29665, Pseudomonas aeruginosa,and Acinetobacter baumannii ATCC 17978 using serial dilutions. Doxycycline (Gold Bio) as a positive control and the vehicle as a negative control. Stock solutions of each compound were prepared at 2.56 mg/mL in 50% DMSO/water and serially diluted in 50% DMSO/water to create master plates. From the master plates, 10 μ L o f each dilution was applied to test plates using a Bravo automated liquid transfer system (Agilent).
(§2) Bacteria previously grown overnight (37 °C, 120–200 RPM), in LB broth were diluted to an OD600 of 0.05 in cation-adjusted Mueller-Hinton broth (CAMHB), grown to an OD600 of ~0.5, and diluted to an OD600 of 0.004 in CAMHB . These diluted cultures were applied to the test plates (190 μL per test well) resulting in final concentrations of the test compounds of 128–1 μg/ m L.
(§3) Growth controls (wells with inoculated media but no vehicle or test compounds) were included to assess any potential toxicity from the vehicle. Th e plates were in cubated at 37 °C for 16–18 h, except fo r VRE and E. faecalis, which w ere in cub ated at 37 °C fo r 24 h. Inh ibition was determined by measuring the optical density at 600 nm (OD60 0) with a Cytation 3 pl ate read er (BioTek). The optical density measurem ents were no rmalized to the positive and negative controls and the vehicle and growth controls were compared and found to b e indistinguishable, indicating no toxicity from […]
(§4) the vehicle used. The MIC was the lowest concentration that inhibited >90% of growth. Two biological replicates were performed in duplicate. MIC values are reported as a range from […]

In data set [2] the test system is Escherichia coli BAA-2452. Put plainly: Antibacterial MIC assay, serial dilution. The following applies: BAA2452, read-out: MIC Escherichia coli BAA-2452. The data set is classed as cell-based.
The test system of data set [3] is Vancomycin resistant Enterococcus faecium NR-31909 (VRE). As to the kind of experiment: Antibacterial MIC assay, serial dilution. It counts as cell-based. The settings on record: for Selectivity index (CC50/MIC) VRE NR-31909: CC50 Vero cells / MIC; for MIC: Enterococcus faecium, VRE, 24 h, read-out: MIC Vancomycin resistant Enterococcus faecium NR-31909 (VRE). As for the experimental part: as §1, §2, §3, §4

The test system of data set [4] is Pseudomonas aeruginosa. Put plainly: Antibacterial MIC assay, serial dilution. It counts as cell-based. The following applies: for Selectivity index (CC50/MIC) P. aeruginosa: CC50 Vero cells / MIC; for MIC: Pseudomonas aeruginosa, range from biological replicates, read-out: MIC P. aeruginosa. The procedure: as §1, §2, §3, §4
In data set [5] the test system is Enterococcus faecalis ATCC 29212. As to the kind of experiment: Antibacterial MIC assay, serial dilution. It counts as cell-based. The following applies: for Selectivity index (CC50/MIC) E. faecalis 29212: CC50 Vero cells / MIC; for MIC: Enterococcus faecalis, ATCC 29112 / ATCC 29212, 24 h, read-out: MIC E. faecalis ATCC 29112. As for the experimental part: as §1, §2, §3, §4

For data set [6], the system named is Acinetobacter baumannii ATCC 17978. Put plainly: Antibacterial MIC assay, serial dilution. It counts as cell-based. The settings on record: ATCC17978, range from biological replicates. The procedure:
as §1, §2, §3, §4

The test system of data set [7] is Klebsiella pneumoniae ATCC 29665. As to the kind of experiment: Antibacterial MIC assay, serial dilution. The data set is classed as cell-based. The settings on record: for MIC: Klebsiella pneumoniae, ATCC29665, range from biological replicates, read-out: MIC K. pneumoniae ATCC-29665. As for the experimental part: as §1, §2, §3, §4
The subject of data set [8] is Methicillin resistant S. aureus (MRSA) USA300. As to the kind of experiment: Antibacterial MIC assay, serial dilution. The following applies: for Selectivity index (CC50/MIC) MRSA USA300: CC50 Vero cells / MIC; for MIC: Staphylococcus aureus, read-out: MIC Methicillin resistant S. aureus (MRSA) USA300. The data set is classed as cell-based, Staphylococcus aureus.
The test system of data set [9] is S. aureus ATCC 6538P. Put plainly: Antibacterial MIC assay, serial dilution. The data set is classed as cell-based, Staphylococcus aureus. The following applies: for Selectivity index (CC50/MIC) S. aureus 6538P: CC50 Vero cells / MIC; for MIC: Staphylococcus aureus, ATCC 6538P / ATCC 6539P, read-out: MIC S. aureus ATCC 6539P. The procedure:
as §1, §2, §3, §4

Data set [10] has as its system S. aureus ΔNorA. Put plainly: Antibacterial MIC assay, serial dilution. The data set is classed as cell-based, Staphylococcus aureus. The settings on record: for Selectivity index (CC50/MIC) S. aureus ΔNorA: CC50 Vero cells / MIC; for MIC: Staphylococcus aureus, read-out: MIC S. aureus ∆NorA. The procedure:
as §1, §2, §3, §4

Data set [11] deals with MRSA ATCC 43300. Put plainly: Antibacterial MIC assay, serial dilution. The following applies: for Selectivity index (CC50/MIC) MRSA 43300: CC50 Vero cells / MIC; for MIC: Staphylococcus aureus, read-out: MIC MRSA ATCC 43300. It counts as cell-based, Staphylococcus aureus. The procedure:
as §1, §2, §3, §4

Data set [12] concerns Methicillin resistant Staphylococcus epidermidis (MRSE) ATCC 35984 NRS101. Put plainly: Antibacterial MIC assay, serial dilution. The data set is classed as cell-based. The settings on record: for Selectivity index (CC50/MIC) MRSE 35984: CC50 Vero cells / MIC; for MIC: Staphylococcus epidermidis, read-out: MIC Methicillin resistant Staphylococcus epidermidis (MRSE) ATCC 35984 NRS101.

Data set [13] in a line: Cytotoxicity assay (MTS/PMS). The data set is classed as cell-based. The settings on record: monkey, Vero cells (monkey kidney epithelial cells); 24 h treatment, MTS/PMS, average of three biological replicates; read-out: CC50 against Vero cells. The procedure: The potential cytotoxic eff ect of the test compounds was investigated using Vero cells (monkey kidney epitheli al cells) following est ablished protocols.3 Briefly, Vero cells were plated into 96-well plates supplemented with Dulbecco's Modified Eagle Medium (DMEM) containing 10% fetal bovine serum (FBS). The cells were placed in a humidified 37 °C environment for incubation with 5% CO₂ for 24 h to allow proper adherence and growth. Following the incubation period, the culture medium was replaced with fresh DMEM containing serial dilutions of the test compounds, while the v ehicle alon e w as used as a negative control. The treated cells were incubated for an additional 24 h. To assess cell viability, the MTS/PMS reagent was added to each well and incubat ed for 4 h. A microplate reader (S ynergy H1, BioTek, USA) was used to m easure absorbance at 490 nm. Al l experiments wer e cond ucted usingthree biologi cal replicates .
Ta b l e S2. CC50 valuesa (µg/mL) against Vero cells […]
aValues at which the cell viability (normalized to vehicle control) was 50%. […]

Values after ≈ are worked out from the molar mass of the structure shown.

As a reminder, the MIC is the lowest concentration found to suppress growth. What is called CC50 is the concentration at which the toxic effect on the cells reaches its halfway point. Consider `COC(=O)[C@H]1O[C@@H](n2ccc(N)nc2=O)C=C[C@@H]1NC(=O)C[C@@H](N)CCN(C)C(=N)N` [Blastimidine M1, blasticidin S methyl ester], for which the “Selectivity index (CC50/MIC) VRE NR-31972” value in data set [1] is 0.9. In addition, the MIC in data set [1] came to 32 µg/mL (≈ 73.3 µM); in data set [2], 8 µg/mL (≈ 18.3 µM); in [3], 64 µg/mL (≈ 147 µM); in data set [4] it was 64 µg/mL (≈ 147 µM); in [5], 16 µg/mL (≈ 36.7 µM); in data set [6], 128 µg/mL (≈ 293 µM). Moreover, the MIC was 64 µg/mL (≈ 147 µM) in data set [7]; 8 µg/mL (≈ 18.3 µM) in [8]; 16 to 32 µg/mL (≈ 36.7 to 73.3 µM) in [9]; 64 to 128 µg/mL (≈ 147 to 293 µM) in data set [10]; 16 to 32 µg/mL (≈ 36.7 to 73.3 µM) in data set [11]; 16 µg/mL (≈ 36.7 µM) in data set [12]. In data set [3], the “Selectivity index (CC50/MIC) VRE NR-31909” value is 0.4. Further, the “Selectivity index (CC50/MIC) P. aeruginosa” value in [4] stood at 0.4. Further, the “Selectivity index (CC50/MIC) E. faecalis 29212” value in data set [5] is recorded as 1.8. Moreover, in [7] (CC50 Vero cells / MIC), the “Selectivity index (CC50/MIC) K. pneumoniae” value worked out at 0.4. The “Selectivity index (CC50/MIC) MRSA USA300” value in data set [8] is recorded as 3.6. The “Selectivity index (CC50/MIC) S. aureus 6538P” value in data set [9] was found to be 1.3. For the same compound, the “Selectivity index (CC50/MIC) S. aureus ΔNorA” value in data set [10] is given as 0.3. Besides, the “Selectivity index (CC50/MIC) MRSA 43300” value in data set [11] is on record as 1.3. For the same compound, the “Selectivity index (CC50/MIC) MRSE 35984” value in data set [12] is listed as 1.8. For the same compound, the half-maximal cytotoxic concentration (CC50) at 24 h in data set [13] amounted to 28 µg/mL (≈ 64.2 µM).

Take `CN(CC[C@H](N)CC(=O)N[C@H]1C=C[C@H](n2ccc(N)nc2=O)O[C@@H]1C(=O)NCCc1ccccc1)C(=N)N` [Blastimidine P1, blasticidin S phenethylamide]: in data set [1], the “Selectivity index (CC50/MIC) VRE NR-31972” value is reported as 15. The MIC in data set [1] is 16 µg/mL (≈ 30.4 µM); in [2], more than 128 µg/mL; in data set [3] it was 128 µg/mL (≈ 244 µM); in [4] it was 64 to 128 µg/mL (≈ 122 to 244 µM); in data set [5], 16 µg/mL (≈ 30.4 µM); in [6], more than 128 µg/mL. For the same compound, the MIC in data set [7] was more than 128 µg/mL; in [8], 8 to 16 µg/mL (≈ 15.2 to 30.4 µM); in data set [9] it was 16 µg/mL (≈ 30.4 µM); in [10], 128 µg/mL (≈ 244 µM); in data set [11], 32 µg/mL (≈ 60.9 µM); in [12] it was 4 µg/mL (≈ 7.61 µM). Besides, the “Selectivity index (CC50/MIC) VRE NR-31909” value in [3] was found to be 1.8. Further, in [4], the “Selectivity index (CC50/MIC) P. aeruginosa” value was determined as 2.8. Further, the “Selectivity index (CC50/MIC) E. faecalis 29212” value in data set [5] was determined as 15. Moreover, in [8], the “Selectivity index (CC50/MIC) MRSA USA300” value worked out at 20. In addition, in [9], the “Selectivity index (CC50/MIC) S. aureus 6538P” value turned out to be 15. Besides, the “Selectivity index (CC50/MIC) S. aureus ΔNorA” value in [10] stood at 1.8. In addition, the “Selectivity index (CC50/MIC) MRSA 43300” value in [11] amounted to 7.3. Besides, the “Selectivity index (CC50/MIC) MRSE 35984” value in data set [12] worked out at 59. For the same compound, the half-maximal cytotoxic concentration (CC50) at 24 h in data set [13] was determined as 235 µg/mL (≈ 447 µM).

The record behind these values is article PMC12856912, “Structure-Guided Semisynthesis of Blasticidin S–Amicetin Chimeras as Selective Ribosome Inhibitors” (Journal of the American Chemical Society, 2026).
